Source: patent US20090082304A1, “Methods of Treating Hematological Malignancies with Nucleoside Analog Drugs” (NORTHWESTERN UNIVERSITY, priority 2004, published 2009)

Legend:
ERK1/2 = assay: Immunoblot of phospho-ERK1/2 in MM.1 S cells; assay type: cell-based; conditions: data not shown; for phospho-ERK1/2: dextrose-free media, ATP depletion, 90 minutes; for phosphorylation of ERK1/2: 4 hours
Description: (§1) 5×10^6 were cells treated with 10 μM 8-NH2-Ado for the indicated times and harvested. Cell pellets were washed with cold phosphate-buffered saline (PBS; 8.1 g NaCl, 1.14 g Na2HPO4, 0.22 g KCl, and 0.25 g/L KH2PO4) and incubated with lysis buffer (50 mM HEPES, 150 mM NaCl, 1.5 mM MgCl2, 1 mM EDTA pH 8.0, 100 mM NaFI, 10 mM Na Pyrophosphate, 500 μM PMSF, 0.5% Triton X-100, 10% glycerol) at 4° C. for one hour. Lysates were centrifuged at 4° C. for 1 minute at 9000×g, and the supernatants were collected and stored at −20° C. Protein concentration was determined by Bio-Rad protein assay (BioRad Laboratories, Hercules, Calif.). Protein, at a concentration of 30 μg, was mixed with sample buffer (125 mM Tris, pH 6.8, 4% SDS, 20% glycerol, 100 mM Dithiothreitol (DTT), and 0.05% bromophenol blue), and fractionated on a pre-cast 8-16% Tris-Glycine gel (Invitrogen/Novex, Carlsbad, Calif.). Proteins were then transferred to a Polyvinylidene Fluoride (PVDF) membrane (Immobilon-P, Millipore, Bedford, Mass.): Following protein transfer, membranes were blocked with 5% non-fat milk in PBS-T (PBS with 0.1% Tween), incubated with the primary antibody overnight at 4° C. and subsequently with horseradish peroxidase linked secondary antibody (Amersham, Arlington Heights, Ill.). Blots were developed using ECL Plus Chemiluminescent Western Blotting Detection reagent (Amersham, Arlington Heights, Ill.) and the signal was visualized with X-ray film (Hyperfilm, Amersham, Arlington Heights, Ill.). For reprobing purposes, blots were stripped using Restore Western Blot Stripping Buffer from Pierce Biotechnology (Rockford, Ill.). Phospho-MKK3/6 (Ser189/207), phospho-p38 (Thr180/Tyr182), phospho-ATF-2 (Thr69/71), phospho-c-Raf (Ser259), phospho-MEK1/2 (Ser217/221), total MEK1/2, phospho-ERK1/2 (Thr202/Tyr204), total ERK1/2, phospho-p90RSK (Ser380), total RSK, phospho-PDK1 (Ser241), total PDKI, phospho-PTEN (Ser380), total PTEN, phospho-Akt (Ser473), total Akt, phospho-GSK-3β (Ser9), total GSK-3β, phospho-FKHRLI (Thr32)/-FKHR (Thr24), phospho-FKHR (Ser256) primary antibodies were obtained from Cell Signaling Technology (Beverly, Mass.). Total MKK3, total MKK6, total p38, total ATF-2, total c-Raf, total FKHR, total FKHRLI, phospho-JNK and total JNK were purchased from Santa Cruz Biotechnology (Santa Cruz, Calif.). Caspase 3, caspase 9, and PARP antibodies were obtained from Pharmingen (San Diego, Calif.) and anti-MKP1 from Upstate (Lake Placid, N.Y.). Anti-caspase 8 mouse serum was a generous gift of Dr. Marcus Peter (University of Chicago).
(§2) MM.1 S cells were exposed to 10 μM 8-NH2-Ado for 0, 0.5, 1, 2, 4 and 6 hours, after which cells were lysed as previously (Example 2). 30 μg of protein was separated by gel electrophoresis, transferred to PVDF membrane, and probed with phosphorylation-specific antibodies to MKK3/6, p38 MAPK, ATF-2, MEK1/2, ERK1/2, p90RSK, JNK1, PDK1, Akt, FKHRL1 and GSK-3β.
(§3) MM. I S cells were treated with 10 μM 8-chloro-adenosine for 0, 0.5, 1, 2, 4 or 6 hours or 10 μM of cytarabine, fludarabine, gemcitabine or 8-amino-adenosine for 4 hours. Cells were lysed as previously described and 30 μg of protein was separated by gel electrophoresis, transferred to PVDF membrane, and probed with phospho-p38 MAPK (Thr180/Tyr182) antibody.
(§4) MM.1 S cells were grown in dextrose-free media and treated with 2 μM Antimycin A, 5 mM 2-DOG, and varying concentrations of dextrose for 90 minutes. Cellular ATP levels were determined using triplicate samples in a luciferase based assay and are expressed here as a percentage of untreated control.

Akt kinase = assay: Immunoblot of phospho-Akt in MM.1 S cells; assay type: cell-based; conditions: data not shown; for phospho-Akt: dextrose-free media, ATP depletion, 90 minutes; for phosphorylation of Akt: 4 hours
Description: as §1, §2, §3, §4

p38 MAPK = assay: Immunoblot of phospho-p38 MAPK in MM.1 S cells; assay type: cell-based
Description: as §1
MM.1 S cells were exposed to 10 μM 8-NH2-Ado for 0, 0.5, 1, 2, 4 and 6 hours, after which cells were lysed as previously (Example 2). 30 μg of protein was separated by gel electrophoresis, transferred to PVDF membrane, and probed with phosphorylation-specific antibodies to MKK3/6, p38 MAPK, ATF-2, MEK1/2, ERK1/2, p90RSK, JNK1, PDK1, Akt, FKHRL1 and GSK-3β. […] FIGS. 1A, 1B, 1C and 1D provide the results of the blots.
as §3
In a parallel approach to test the involvement of cellular phosphatases, we treated MM.1 S cells with varying concentrations of the phosphatase inhibitor okadaic acid in combination with 8-NH2-Ado for 4 hours to assess whether the serine/threonine phosphatases PP2A and PPI are involved.

MM cells [1] = conditions: MM cells, previously shown; cited from earlier work
MM cells [2] = conditions: cited from earlier work

## Antimycin A
ERK1/2
  phospho-ERK1/2: did not reveal a decrease in phosphorylation
Akt kinase
  phospho-Akt: did not reveal a decrease in phosphorylation

## Nc1ccn([C@@H]2O[C@H](CO)[C@@H](O)C2(F)F)c(=O)n1 [gemcitabine]
p38 MAPK; 10 μM, 4 hours
  phosphorylation of p38: do not cause a decrease
MM cells [1]
  cytotoxicity: cytotoxic
ERK1/2; 10 μM
  phosphorylation of ERK1/2: do not cause a decrease
Akt kinase; 10 μM
  phosphorylation of Akt: do not cause a decrease

## Nc1ccn([C@@H]2O[C@H](CO)[C@@H](O)[C@@H]2O)c(=O)n1 [cytarabine]
p38 MAPK; 10 μM, 4 hours
  phosphorylation of p38: do not cause a decrease
MM cells [1]
  cytotoxicity: cytotoxic
ERK1/2; 10 μM
  phosphorylation of ERK1/2: do not cause a decrease
Akt kinase; 10 μM
  phosphorylation of Akt: do not cause a decrease

## Nc1nc(F)nc2c1ncn2[C@@H]1O[C@H](CO)[C@@H](O)[C@@H]1O [Fludarabine]
MM cells [1]
  cytotoxicity: cytotoxic

## C=C1[C@@H](O)[C@@H]2O[C@]3(CC[C@H](/C=C/[C@@H](C)[C@@H]4CC(C)=C[C@@]5(O[C@H](C[C@@](C)(O)C(=O)O)CC[C@H]5O)O4)O3)CC[C@H]2O[C@@H]1[C@@H](O)C[C@H](C)[C@H]1O[C@@]2(CCCCO2)CC[C@H]1C [okadaic acid]
p38 MAPK; 30 nM okadaic acid in combination with 8-NH2-Ado, 4 hours
  phospho-p38 in the presence of 8-NH2-Ado: partial recovery of phosphorylation
p38 MAPK; 30 nM okadaic acid with 10 μM 8-NH2-Ado, at 6 hours
  phospho-p38 levels: still present
p38 MAPK; 30 nM okadaic acid with 10 μM 8-NH2-Ado, time course
  8-NH2-Ado-induced loss of p38 phosphorylation: significantly delays

## O=CC[C@@H](O)[C@H](O)[C@H](O)CO [2-DOG, 2-deoxy-D-glucose]
ERK1/2
  phospho-ERK1/2: did not reveal a decrease in phosphorylation
Akt kinase
  phospho-Akt: did not reveal a decrease in phosphorylation

## Nc1ncnc2c1nc(Cl)n2[C@@H]1O[C@H](CO)[C@@H](O)[C@H]1O [8-chloro-adenosine]
p38 MAPK; 10 μM, time course 0-6 hours
  phosphorylation status of p38: does not reveal any effect
MM cells [2]
  apoptosis: induces apoptosis
ERK1/2; 10 μM, time course 0-6 hours
  phosphorylation status of ERK1/2: does not reveal any effect
Akt kinase; 10 μM, time course 0-6 hours
  phosphorylation status of Akt kinase: does not reveal any effect
